Reference: PMC8039949, “A novel small-molecule PROTAC selectively promotes tau clearance to improve cognitive functions in Alzheimer-like models” (Theranostics, 2021)
Peptide text beside a SMILES is read from it. * marks the point of attachment. Cbz = O=C(OCc1ccccc1)*

Biological target: T1, human tau (hTau) (Homo sapiens, UniProt P10636)
T1 construct: expressed in transfected cells
Assay: Tau clearance in HEK293-hTau cells by Western blotting
Assay type: cell-based
Conditions: HEK293-hTau cells; 10 μM MG132 with 20 μM C004019; 24 h
Experimental: SH-SY5Y human neuroblastoma cells were cultured in 90% DME/F-12 medium (HyClone, SH30023.01) with 10% fetal bovine serum (FBS) (Biological Industries, 04-001-1ACS) and penicillin (100 U/mL)/ streptomycin (100 μg/mL) in a 37 °C incubator with humidified atmosphere of 5% CO2. Human embryonic kidney 293 cells (HEK293) or HEK293 with stable expression of wild-type full-length human tau (termed as HEK293-hTau) were cultured in 90% DMEM/High Glucose medium (HyClone, SH30022.01) containing 10% FBS and 200 μg/mL G418 (ThermoFisher Scientific, 10131027), in a humidified atmosphere of 5% CO2 at 37 °C. Neofect (DNA transfection reagent, TF20121201) was used for plasmids transfection. The cells were placed onto 6-well or 12-well plates. Plasmids (EGFP-hTau or 3xFlag-hTau or the vector), neofect and Opti-MEM medium (Gibco, 31985-070) were made into a mixture in a ratio of 1 μg: 1 μL : 100 μL and then added into each well of the plate. To inhibit proteasome activity, HEK293-hTau cells were cultured with DMEM/High medium containing 20 μM C004019 with or without 10 μM MG132, or the same volume of vehicle (DMSO) for 24 h at 37 °C. To induce tau hyperphosphorylation, SH-SY5Y cells were cultured with DME/F-12 medium containing 10 μM C004019 with or without 1 μM GFX and 1 μM WO for 24 h at 37 °C.
The cells or hippocampal/cortex tissues were homogenized for ~ 30 min on ice in buffer [50 mM Tris·HCl pH 7.4-7.5, 100 mM NaCl, 1% (vol/vol) Triton X-100, 5 mM EDTA, 1:100 PMSF, 1:1,000 protease inhibitor cocktail containing 4-(2-Aminoethyl)-benzenesulfonyl fluoride hydrochloride, aprotinin, bestatin, leupeptin, E-64, and pepstatin A stored at 4 °C], and then centrifuged at 12,000 × g at 4 °C for 20 min. The supernatant was collected and the protein levels were analyzed using bicinchoninic acid (BCA, KF016, Sigma-Aldrich) by following the manufacturer's instruction (served as soluble protein). The pellet was further incubated with 8% (wt/vol) SDS buffer at 4 °C and then treated by ultrasonic wave to reach a complete resuspension. […] Immunoreactive bands were quantitatively analyzed by Image J2x software.

T1 sequence (P10636 1-441 isoform P10636-8): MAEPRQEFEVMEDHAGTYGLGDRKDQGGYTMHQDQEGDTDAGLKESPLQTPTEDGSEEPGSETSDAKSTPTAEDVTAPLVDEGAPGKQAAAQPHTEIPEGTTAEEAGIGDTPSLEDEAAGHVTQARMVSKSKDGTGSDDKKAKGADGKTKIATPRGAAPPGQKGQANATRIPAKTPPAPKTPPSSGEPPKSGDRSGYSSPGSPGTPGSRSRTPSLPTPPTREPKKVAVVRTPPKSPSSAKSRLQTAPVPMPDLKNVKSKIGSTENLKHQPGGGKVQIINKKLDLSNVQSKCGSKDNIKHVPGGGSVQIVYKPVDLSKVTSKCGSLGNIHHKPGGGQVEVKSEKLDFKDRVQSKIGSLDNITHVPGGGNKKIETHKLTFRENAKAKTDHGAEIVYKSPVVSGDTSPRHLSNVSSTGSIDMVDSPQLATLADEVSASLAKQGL

With `CC(C)C[C@@H](C=O)NC(=O)[C@H](CC(C)C)NC(=O)[C@H](CC(C)C)NC(=O)OCc1ccccc1` [MG132, reference compound] (Cbz-Leu-Leu-Leu-aldehyde) the “effect on C004019-induced clearance of tau (proteasome inhibition)” value was “abolished”.
